Results from patent US6593301B1, “Use of steroidal saponins for the prophylaxis or treatment of dementia, and novel steroidal saponin compounds” (Institute of Radiation Medicine, priority 2000, dated 2003).
Read-outs that look alike come from different tables or passages of the source.

Assays:
cerebral basilar artery = experiment: Experiment on cerebral basilar artery (isolated artery on transducer, KCl as vasoconstrictor); details: for Effect on the basilar artery (dilation): 50 μl solution added to the bath
Experimental: Take 50 μl solutions to dissolved in 5 ml saline again. (2). Remove the cerebrum and cerebellum from the fresh brain, and get the middle part of the basilar artery (3). Adjust the transducer and amplifier to make pointer return to zero (4). Hang the basilar artery on the transducer and immerse it in the bath.

rat thoracic aorta = details: 0.04 mM
Description: Take thoracic aorta from rat, remove the connective tissue and blood, immerse the aorta into the Krebs-Henselelt liquid and ventilate oxygen, hang the aorta on the transducer, and assay its radial tension.

[1] = tested on: cerebral blood flow of rat; details: for Mean of rCBF / Rate of rCBF increase / rCBF Rat 1 / rCBF Rat 2 / rCBF Rat 3 / rCBF Rat 4: 50 μg/Kg intravenous
Experimental: Method: Hydrogen-clearing method
Instrument: LS-III Blood Flow Meter
1. Anesthetize the rat with 10% chloral hydrate, separate the general vein of thigh and intubate to prepare to inject Compound III.
2. Open a window in the parietal lobe of dermal epithelium with cranial drill and lay up hydrogen electrode.
3. After operation, collect the animal with the Blood Follow Meter and computer, steady for 30 minutes and begin to measure the rCBF (regional cerebral blood flow).

[2] = tested on: nicotinic receptors (SY-SH5Y human neuroblastoma cell); details: SY-SH5Y cells treated three days, 1 μM up to 100 μM
Experimental: (§1) In the experiments, we used two different cell lines, SY-SH5Y and M10. SY-SH5Y is human neuroblastoma cell which expresses natural nicotinic and muscarinic receptors, and M10 cell expresses the recombinant a4b2 subtype of chicken nicotinic receptor. We treated both cell lines with Compound III for three days with different concentrations from 1 μM up to 100 μM, and measured the amount of nAChRs.

[3] = tested on: recombinant a4b2 subtype of chicken nicotinic receptor (M10 cells); details: M10 cells treated three days, 1 μM up to 100 μM
Experimental: as §1

[4] = tested on: rat hippocampus neuronal cells; experiment: Proliferation of rat hippocampus neuronal cells (MTT staining, OD); format: cell-based; details: 7 days
Experimental: 1. Get hippocampus neuronal cells from rat embryo and do preliminary cell culture.
2. Incubate the cells for 7 days at different concentration (3 or 5 parallel holes for each group).
3. Do MTT staining and measure OD value.

[5] = Scavenging effects on hydroxyl free radicals (Fenton reaction, ESR)

C[C@@H](CCC1(O)O[C@H]2C[C@H]3[C@@H]4CC[C@@H]5C[C@@H](O[C@@H]6O[C@H](CO)[C@H](O)[C@H](O)[C@H]6O[C@@H]6O[C@H](CO)[C@@H](O)[C@H](O)[C@H]6O)CC[C@]5(C)[C@H]4CC[C@]3(C)[C@H]2[C@@H]1C)CO[C@@H]1O[C@H](CO)[C@@H](O)[C@H](O)[C@H]1O (stereo partly drawn) [Compound III, (25S)-26-β-D-glucopyranosyl-22-hydroxy-5β-furost-3β,26-diol-3-0-β-D-glucopyranosyl(1→2)-β-D-galactopyranoside]
Effect on the basilar artery (dilation) (cerebral basilar artery): dilated slightly
Contraction of the basilar artery when adding the vasoconstrictor KCl (cerebral basilar artery; after 50 μl compound added to the bath): did not contract again
Dilation of cerebral vascular and resistance to contraction caused by vasoconstrictor (cerebral basilar artery; at 10^−5 g/ml (0.01 mM)): could dilate cerebral vascular and resist the contraction caused by vasoconstrictor
Effective concentration compared with positive Ligustrazine (cerebral basilar artery; same experimental conditions): two orders of magnitude lower
Inhibition of contraction of rat aorta caused by KCl (rat thoracic aorta): could restrain the contraction
Mean of rCBF ([1]; 1 min): 141562.5 µL/min/mg
Rate of rCBF increase ([1]; 1 min): 7.806%
rCBF Rat 1 ([1]; 1 min): 133300 µL/min/mg
rCBF Rat 2 ([1]; 1 min): 150050 µL/min/mg
rCBF Rat 3 ([1]; 1 min): 139550 µL/min/mg
rCBF Rat 4 ([1]; 1 min): 143350 µL/min/mg
Mean of rCBF ([1]; 10 min): 149785 µL/min/mg
Rate of rCBF increase ([1]; 10 min): 14.07%
rCBF Rat 1 ([1]; 10 min): 147990 µL/min/mg
rCBF Rat 2 ([1]; 10 min): 143410 µL/min/mg
rCBF Rat 3 ([1]; 10 min): 162100 µL/min/mg
rCBF Rat 4 ([1]; 10 min): 145640 µL/min/mg
Mean of rCBF ([1]; 20 min): 148405 µL/min/mg
Rate of rCBF increase ([1]; 20 min): 13.02%
rCBF Rat 1 ([1]; 20 min): 158460 µL/min/mg
rCBF Rat 2 ([1]; 20 min): 136330 µL/min/mg
rCBF Rat 3 ([1]; 20 min): 177590 µL/min/mg
rCBF Rat 4 ([1]; 20 min): 121240 µL/min/mg
Mean of rCBF ([1]; 30 min): 163497.5 µL/min/mg
Rate of rCBF increase ([1]; 30 min): 24.51%
rCBF Rat 1 ([1]; 30 min): 164610 µL/min/mg
rCBF Rat 2 ([1]; 30 min): 182960 µL/min/mg
rCBF Rat 3 ([1]; 30 min): 171420 µL/min/mg
rCBF Rat 4 ([1]; 30 min): 135000 µL/min/mg
Mean of rCBF ([1]; 40 min): 164670 µL/min/mg
Rate of rCBF increase ([1]; 40 min): 25.4%
rCBF Rat 1 ([1]; 40 min): 176900 µL/min/mg
rCBF Rat 2 ([1]; 40 min): 202460 µL/min/mg
rCBF Rat 3 ([1]; 40 min): 165940 µL/min/mg
rCBF Rat 4 ([1]; 40 min): 113380 µL/min/mg
Mean of rCBF ([1]; 50 min): 166147.5 µL/min/mg
Rate of rCBF increase ([1]; 50 min): 26.53%
rCBF Rat 1 ([1]; 50 min): 176770 µL/min/mg
rCBF Rat 2 ([1]; 50 min): 193570 µL/min/mg
rCBF Rat 3 ([1]; 50 min): 163080 µL/min/mg
rCBF Rat 4 ([1]; 50 min): 131170 µL/min/mg
Increase of the rCBF of rat ([1]; 50 μg/kg in vivo (text summary, time not stated)): 26.5%
Hemolysis ([1]; administered intravenously at the effective concentration (50 μg/kg)): no hemolysis
Number of nAChRs [2]: significantly up-regulate
Number of nAChRs [3]: significantly up-regulate
Mean of OD ([4]; 0.1 μg/ml): 0.0773
Proliferation rate ([4]; 0.1 μg/ml): 23.88%
Mean of OD ([4]; 1 μg/ml): 0.0663
Proliferation rate ([4]; 1 μg/ml): 6.25%
Mean of OD ([4]; 10 μg/ml): 0.0860
Proliferation rate ([4]; 10 μg/ml): 37.82%
Mean of OD ([4]; 50 μg/ml): 0.0807
Proliferation rate ([4]; 50 μg/ml): 29.33%
Mean of OD ([4]; 100 μg/ml): 0.0750
Proliferation rate ([4]; 100 μg/ml): 20.19%
Mean of OD ([4]; 500 μg/ml): 0.0903
Proliferation rate ([4]; 500 μg/ml): 44.71%
Mean of OD ([4]; 1000 μg/ml): 0.0673
Proliferation rate ([4]; 1000 μg/ml): 7.853%
Inhibitory rate (hydroxyl free radicals) [5]: 56.7%
Scavenging effect relative to the other compounds [5]: most effective
Scavenging of hydroxyl free radicals produced by Fenton reaction (in words) [5]: could scavenge
Scavenging rate [5]: 56.7%

COC1(CC[C@H](C)CO[C@@H]2O[C@H](CO)[C@@H](O)[C@H](O)[C@H]2O)O[C@H]2C[C@H]3[C@@H]4CC[C@@H]5C[C@@H](O[C@@H]6O[C@H](CO)[C@H](O)[C@H](O)[C@H]6O[C@@H]6O[C@H](CO)[C@@H](O)[C@H](O)[C@H]6O)CC[C@]5(C)[C@H]4CC[C@]3(C)[C@H]2[C@@H]1C (stereo partly drawn) [Compound IV, (25S)-26-0-β-D-glucopyranosyl-22-methoxy-5β-furost-3β,26-diol-3-0-β-D-glucopyranosyl(1→2)-β-D-galactopyranoside]
Effect on the basilar artery (dilation) (cerebral basilar artery): no obvious effect
Scavenging of hydroxyl free radicals produced by Fenton reaction (in words) [5]: could scavenge
Scavenging rate [5]: 33.3%

CC1=C(CC[C@H](C)CO[C@@H]2O[C@H](CO)[C@@H](O)[C@H](O)[C@H]2O)O[C@H]2C[C@H]3[C@@H]4CC[C@@H]5C[C@@H](O[C@@H]6O[C@H](CO)[C@H](O)[C@H](O)[C@H]6O[C@@H]6O[C@H](CO)[C@@H](O)[C@H](O)[C@H]6O)CC[C@]5(C)[C@H]4CC[C@]3(C)[C@@H]12 [Compound I, (25S)-26-O-β-D-glucopyranosyl-5β-furost-20(22)-ene-3β,26-diol-3-O-β-D-glucopyranosyl(1→2)-β-D-galactopyranoside]
Effect on the basilar artery (dilation) (cerebral basilar artery): no obvious effect
Scavenging rate ([5]; 5 mg/ml, ESR, Fenton reaction): 23.3%
Scavenging of hydroxyl free radicals produced by Fenton reaction (in words) ([5]; Fe^2++H2O2): could scavenge

CC1=C(CC[C@H](C)CO[C@@H]2O[C@H](CO)[C@@H](O)[C@H](O)[C@H]2O)O[C@H]2C[C@H]3[C@@H]4CC[C@@H]5C[C@@H](O[C@@H]6O[C@H](CO)[C@@H](O)[C@H](O)[C@H]6O[C@@H]6O[C@H](CO)[C@@H](O)[C@H](O)[C@H]6O)CC[C@]5(C)[C@H]4CC[C@]3(C)[C@@H]12 [Compound II, (25S)-26-O-β-D-glucopyranosyl-5β-furost-20(22)-ene-3β,26-diol-3-O-β-D-glucopyranosyl(1→2)-β-D-glucopyranoside]
Effect on the basilar artery (dilation) (cerebral basilar artery): no obvious effect
Scavenging rate ([5]; 5 mg/ml, ESR, Fenton reaction): 40.0%
Scavenging of hydroxyl free radicals produced by Fenton reaction (in words) ([5]; Fe^2++H2O2): could scavenge
